Results: PMC10135569, “Does Enhanced Structural Maturity of hiPSC-Cardiomyocytes Better for the Detection of Drug-Induced Cardiotoxicity?” (Biomolecules, 2023)

Tests used:
[1] = tested on: hiPSC-CMs (iCell2 Cardiomyocytes) 2D monolayers; test: Membrane potential (action potential) recordings with FluoVolt voltage-sensitive dye on the CellOPTIQ platform; type: cell-based, human; conditions: for activity at 0.01 µM / activity at 0.03 µM / activity at 0.1 µM / activity at 0.3 µM: Homo sapiens, Cardiomyocyte, 0.5 h, 30 min, delta over DMSO 0.1%
Method: (§1) Cardiomyocytes (FUJIFILM Cellular Dynamics, Madison, WI, USA) were kept at −190 °C and prepared for culture as per the manufacturer’s instructions.
(§2) Standard fibronectin vs. Matrix Plus well coating: The cells were cultured using two different coatings in a humidified incubator at 37 °C with 5% CO2. First, 96-well glass-bottomed plates (MatTek, Ashland, MA) were coated with fibronectin ([…] in PBS supplemented with Ca^2+ and Mg^2+; Sigma, St. Louis, MO, USA) (defining FM). Second, CELLvo^TM Matrix Plus (StemBioSys, San Antonio, TX, USA), which were pre-coated on 96 well glass bottom plates and kept at 4 °C. On the day of plating, CELLvo^TM Matrix Plus plates were transferred to room temperature, rehydrated with phosphate buffer saline (PBS), incubated for 1 h at 37 °C, and washed 2× with PBS. Cells were introduced at a density of 50,000 cells/well to allow the formation of a confluent monolayer in each well (defined as MM). The maintenance protocols followed the manufacturer’s instructions and used the iCell^2 Cardiomyocytes Maintenance media for media changes every 2 days. Experiments were performed between days 5 and 6, as recommended by the manufacturers. Before beginning an experiment, cells were washed in serum-free media (SF media) (Fluorobrite DMEM, Gibco, Thermo Fisher Scientific, Horsham, UK).
(§3) The drug powders were dissolved in DMSO, and four stock concentrations at 1000× the final target concentration were prepared in DMSO. For the experiment, an intermediate concentration 2× the target solution was prepared in SF media. The addition of drugs to the cells was accomplished by replacing 50% of the well volume with the intermediate 2× solution. The same procedure was done for vehicle control using DMSO. The experimental number n = 8/concentration/testing compound in the FM or MM condition, and n = 36 for each positive or negative control in the FM or MM condition.
Cultures of hiPSC-CMs (5–6 days post-plating) were treated with FluoVolt dye (1:1000, Invitrogen, Cat# F10488) in SF media and incubated for 20 min at 37 °C with 5% CO2 and 80% humidity. Multi-well plates were placed in the environmentally controlled stage incubator (37 °C, 5% CO2, water-saturated air atmosphere) (Okolab Inc. Burlingame, CA) of the CellOPTIQ® platform (Clyde Biosciences Ltd., Glasgow, Scotland). The FluoVolt signal was recorded from a 0.2 mm × 0.2 mm area using a 40× (numerical aperture: NA 0.6) Excitation wavelength was 470 ± 10 nm using a light-emitting diode (LED), and emitted light was collected by two photomultipliers (PMTs) at 510–560 nm (channel 1) and 590–650 nm (channel 2), respectively. LED, PMT, and associated power supplies and amplifiers were supplied by Cairn Research Ltd. (Kent, UK) and digitized at 10 kHz and stored on a computer hard drive. In the case of FluoVolt-based action potential recordings, the short wavelength (channel 1, […]) was analyzed for action potential features.
(§4) The dye FluoVolt is loaded into the surface membrane (outer leaflet), and the dye remains within the membrane for many dots, allowing intermittent voltage measurements over the experimental period. In this study, measurements were restricted to within 30 mins of application of the drug. The measurements were made on the same area before/after drug/DMSO addition. […] Baseline spontaneous electrical activity and the associated contractility signal were recorded by capturing 10 s segments of fluorescent signal and video for 2D plates and 15 s for organoids from each well prior to compound addition. Drugs were tested at four concentrations in n = 8 independent replicates (i.e., 8 wells from a single plating) at each concentration. A vehicle control was included for each drug. A 10 s or 15 s recording was then taken 30 min after exposure to the drug or vehicle with only one concentration applied/well.

[2] = tested on: hiPSC-CMs (iCell2 Cardiomyocytes) 2D monolayers; test: Contractility measurements using video imaging (ContractilityTool / MUSCLEMOTION); type: cell-based, human; conditions: Homo sapiens, Cardiomyocyte, 0.5 h, 30 min, delta over DMSO 0.1%
Method: as §1, §2, §3
as §4, with “applied/well. Offline analysis was performed using proprietary software (CellOPTIQ®).” for “applied/well.”
Short periods (10 s or 15 s) of video were analyzed using the ContractilityTool application (developed by F.L. Burton), which is an implementation of the MUSCLEMOTION algorithm.

[3] = FM monolayer, read-out: APD30 (%DD)
[4] = FM monolayer, read-out: APD90 (%DD)
[5] = FM monolayer, read-out: CL (%DD)
[6] = FM monolayer, read-out: Trise (%DD)
[7] = MM monolayer, read-out: APD30 (%DD)
[8] = MM monolayer, read-out: APD90 (%DD)
[9] = MM monolayer, read-out: CL (%DD)
[10] = MM monolayer, read-out: Trise (%DD)
[11] = both FM and MM monolayers, concentration not given
[12] = FM monolayer, read-out: CtAmp (%DD)
[13] = FM monolayer, read-out: CtD50 (%DD)
[14] = MM monolayer, read-out: CtAmp (%DD)
[15] = MM monolayer, read-out: CtD50 (%DD)

COc1ccc([C@@H]2Sc3ccccc3N(CCN(C)C)C(=O)[C@@H]2OC(C)=O)cc1 [Diltiazem]
activity at 0.01 µM [1, 3]: 98 ± 1.9%
activity at 0.01 µM [1, 4]: 96 ± 1.1%
activity at 0.01 µM [1, 5]: 102 ± 1.1%
activity at 0.01 µM [1, 6]: 105 ± 17%
activity at 0.03 µM [1, 3]: 92 ± 1.5%
activity at 0.03 µM [1, 4]: 92 ± 0.9%
activity at 0.03 µM [1, 5]: 103 ± 1.3%
activity at 0.03 µM [1, 6]: 103 ± 12.5%
activity at 0.1 µM [1, 3]: 76 ± 2.7%
activity at 0.1 µM [1, 4]: 78 ± 2.2%
activity at 0.1 µM [1, 5]: 96 ± 0.8%
activity at 0.1 µM [1, 6]: 91 ± 12%
activity at 0.3 µM [1, 3]: 60 ± 1.3%
activity at 0.3 µM [1, 4]: 62 ± 1.1%
activity at 0.3 µM [1, 5]: 85 ± 0.5%
activity at 0.3 µM [1, 6]: 116 ± 13.8%
activity at 0.01 µM [1, 7]: 100 ± 1.9%
activity at 0.01 µM [1, 8]: 96 ± 0.6%
activity at 0.01 µM [1, 9]: 98 ± 0.9%
activity at 0.01 µM [1, 10]: 86 ± 16.4%
activity at 0.03 µM [1, 7]: 91 ± 1.2%
activity at 0.03 µM [1, 8]: 90 ± 0.7%
activity at 0.03 µM [1, 9]: 96 ± 0.9%
activity at 0.03 µM [1, 10]: 79 ± 4%
activity at 0.1 µM [1, 7]: 80 ± 1.6%
activity at 0.1 µM [1, 8]: 77 ± 1.2%
activity at 0.1 µM [1, 9]: 83 ± 0.6%
activity at 0.1 µM [1, 10]: 79 ± 14.3%
activity at 0.3 µM [1, 7]: 65 ± 0.8%
activity at 0.3 µM [1, 8]: 62 ± 0.9%
activity at 0.3 µM [1, 9]: 71 ± 0.5%
activity at 0.3 µM [1, 10]: 74 ± 8.9%
effect on APD30 (in words) [1, 11]: shortening
effect on APD90 (in words) [1, 11]: shortening
effect on beating rate / spontaneous rate (in words) ([1]; both FM and MM, concentration not given): increase
activity at 0.01 µM [2, 12]: 142 ± 27.5%
activity at 0.01 µM [2, 13]: 103 ± 2.8%
activity at 0.03 µM [2, 12]: 127 ± 27.9%
activity at 0.03 µM [2, 13]: 95 ± 1.4%
activity at 0.1 µM [2, 12]: 108 ± 33.5%
activity at 0.1 µM [2, 13]: 82 ± 1.6%
activity at 0.3 µM [2, 12]: 59 ± 15.4%
activity at 0.3 µM [2, 13]: 68 ± 1.4%
activity at 0.01 µM [2, 14]: 101 ± 11.1%
activity at 0.01 µM [2, 15]: 105 ± 2.7%
activity at 0.03 µM [2, 14]: 94 ± 7.8%
activity at 0.03 µM [2, 15]: 99 ± 2.6%
activity at 0.1 µM [2, 14]: 93 ± 6.2%
activity at 0.1 µM [2, 15]: 81 ± 1.2%
activity at 0.3 µM [2, 14]: 73 ± 5.8%
activity at 0.3 µM [2, 15]: 61 ± 1.9%
